From patent publication EP0527889B1, “QUINOLIZINONE TYPE COMPOUNDS” (priority 1990, dated 1991)
≈ marks a conversion by molar mass, not a printed value. Counter-ions that a name gives are not always drawn.

Key:
Assay in all cases: In vitro antibacterial activity, MIC by agar dilution
Assay type in all cases: cell-based
Conditions in all cases: BHI agar, 35-37°C, 20-24 hours, unit assumed
[1] = test system: Staphylococcus aureus 1775
Experimental: (§1) Each plate was inoculated with 1:100 (or 1:10 for slow growing strains, primarily Micrococcus and Streptococcus) dilutions of up to 32 different microorganisms, using a Steers replicator block calibrated to deliver approximately 10^4 colony forming units (CFUs). The inoculated plates were incubated at from about 35°C to about 37°C for approximately 20-24 hours. In addition, a control plate using BHI agar containing no test compound was prepared and incubated at the beginning and at the end of each test. Ciprofloxacin was used as the control antibiotic.
(§2) The MIC was defined as the lowest concentration of test compound yielding no growth (a slight haze or sparsely isolated colonies at the inoculum spot) as compared to the growth control containing no test compound.

[2] = test system: Enterococcus faecium ATCC 8043
Experimental: as §1, §2

Pseudomonas cepacia 296I = test system: Pseudomonas cepacia 296I
Experimental: as §1, §2

Escherichia coli SS = test system: Escherichia coli SS
Experimental: as §1, §2

[3] = test system: Pseudomonas aeruginosa A5007
Experimental: as §1, §2

[4] = test system: Acinetobacter calcoaceticus CMX 669
Experimental: as §1, §2

[5] = test system: Pseudomonas aeruginosa 2862
Experimental: as §1, §2

[6] = test system: Micrococcus luteus ATCC 9341
Experimental: as §1, §2

Escherichia coli H560 = test system: Escherichia coli H560
Experimental: as §1, §2

[7] = test system: Staphylococcus aureus A-5278
Experimental: as §1, §2

[8] = test system: Staphylococcus aureus CMX 553
Experimental: as §1, §2

[9] = test system: Streptococcus pyrogenes EES61
Experimental: as §1, §2

Escherichia coli KNK 437 = test system: Escherichia coli KNK 437
Experimental: as §1, §2

[10] = test system: Streptococcus pyrogenes CONST
Experimental: as §1, §2

Escherichia coli DC-2 = test system: Escherichia coli DC-2
Experimental: as §1, §2

[11] = test system: Streptococcus agalactaciae CMX 508
Experimental: as §1, §2

[12] = test system: Enterobacter aerogenes ATCC 13048
Experimental: as §1, §2

[13] = test system: Staphylococcus aureus NCTC 10649
Experimental: as §1, §2

[14] = test system: Pseudomonas aeruginosa K799/WT
Experimental: as §1, §2

[15] = test system: Staphylococcus aureus ATCC 6538P
Experimental: as §1, §2

[16] = test system: Staphylococcus epidermidis 3519
Experimental: as §1, §2

[17] = test system: Streptococcus bovis A5169
Experimental: as §1, §2

[18] = test system: Staphylococcus aureus A5177
Experimental: as §1, §2

[19] = test system: Staphylococcus aureus 642A
Experimental: as §1, §2

[20] = test system: Pseudomonas aeruginosa 5263
Experimental: as §1, §2

[21] = test system: Klebsiella pneumoniae ATCC 8045
Experimental: as §1, §2

[22] = test system: Streptococcus pyrogenes 2548 INDUC
Experimental: as §1, §2

[23] = test system: Pseudomonas aeruginosa K799/61
Experimental: as §1, §2

Escherichia coli JUHL = test system: Escherichia coli JUHL
Experimental: as §1, §2

[24] = test system: Micrococcus luteus ATCC 4698
Experimental: as §1, §2

[25] = test system: Providencia stuartii CMX 640
Experimental: as §1, §2

[26] = test system: Pseudomonas aeruginosa BMH10
Experimental: as §1, §2

SMILES | MIC values [2] [µg/mL] | MIC values (Pseudomonas cepacia 296I) [µg/mL] | MIC values (Escherichia coli SS) [µg/mL] | MIC values [4] [µg/mL] | MIC values [6] [µg/mL] | MIC values (Escherichia coli H560) [µg/mL] | MIC values [8] [µg/mL] | MIC values [9] [µg/mL] | MIC values (Escherichia coli KNK 437) [µg/mL] | MIC values [10] [µg/mL] | MIC values (Escherichia coli DC-2) [µg/mL] | MIC values [11] [µg/mL] | MIC values [13] [µg/mL] | MIC values [14] [µg/mL] | MIC values [15] [µg/mL] | MIC values [16] [µg/mL] | MIC values [18] [µg/mL] | MIC values [20] [µg/mL] | MIC values [23] [µg/mL] | MIC values [24] [µg/mL] | also measured
NC1CCN(c2nc3c(-c4ccc(F)cc4F)cc(C(=O)O)c(=O)n3cc2F)C1 (centres unmarked) [Example 161, 2-(3-Aminopyrrolidin-1-yl)-9-(2,4-difluorophenyl)-3-fluoro-6H-6-oxopyrido[1,2-a]pyrimidine-7-carboxylic acid] | 0.78 (≈ 1.93 µM) | 3.1 (≈ 7.67 µM) | 0.005 (≈ 0.0124 µM) | 0.05 (≈ 0.124 µM) | 3.1 (≈ 7.67 µM) | 0.02 (≈ 0.0495 µM) | 0.1 (≈ 0.247 µM) | 0.39 (≈ 0.965 µM) | 0.2 (≈ 0.495 µM) | 0.39 (≈ 0.965 µM) | 0.2 (≈ 0.495 µM) | 0.39 (≈ 0.965 µM) | 0.05 (≈ 0.124 µM) | 0.2 (≈ 0.495 µM) | 0.05 (≈ 0.124 µM) | 0.1 (≈ 0.247 µM) | 0.1 (≈ 0.247 µM) | 100 (≈ 247 µM) | 0.05 (≈ 0.124 µM) | 3.1 (≈ 7.67 µM) | MIC values [1]: 100 µg/mL (≈ 247 µM); MIC values [3]: 0.2 µg/mL (≈ 0.495 µM); MIC values [5]: 100 µg/mL (≈ 247 µM); MIC values [7]: 0.1 µg/mL (≈ 0.247 µM); MIC values [12]: 0.05 µg/mL (≈ 0.124 µM); MIC values [17]: 1.56 µg/mL (≈ 3.86 µM); MIC values [19]: 0.1 µg/mL (≈ 0.247 µM); MIC values [21]: 0.01 µg/mL (≈ 0.0247 µM); MIC values [22]: 0.1 µg/mL (≈ 0.247 µM); MIC values (Escherichia coli JUHL): 0.02 µg/mL (≈ 0.0495 µM); MIC values [25]: 1.56 µg/mL (≈ 3.86 µM); MIC values [26]: 0.2 µg/mL (≈ 0.495 µM)
CC(C)(C)OC(=O)NC1CCN(c2nc3c(-c4ccc(F)cc4F)cc(C(=O)O)c(=O)n3cc2F)C1 (centres unmarked) [Example 160, 2-(3-(N-t-butoxycarbonyl)aminopyrrolidin-1-yl)-9-(2,4-difluorophenyl)-3-fluoro-6H-6-oxopyrido[1,2-a]pyrimidine-7-carboxylic acid] | 3.1 (≈ 6.15 µM) | > 100 | 0.005 (≈ 0.00991 µM) | 3.1 (≈ 6.15 µM) | 6.2 (≈ 12.3 µM) | 3.1 (≈ 6.15 µM) | 0.39 (≈ 0.773 µM) | 1.56 (≈ 3.09 µM) | 25 (≈ 49.6 µM) | 1.56 (≈ 3.09 µM) | 25 (≈ 49.6 µM) | 1.56 (≈ 3.09 µM) | 0.2 (≈ 0.396 µM) | 12.5 (≈ 24.8 µM) | 0.2 (≈ 0.396 µM) | 0.39 (≈ 0.773 µM) | 0.39 (≈ 0.773 µM) | > 100 | 3.1 (≈ 6.15 µM) | 0.78 (≈ 1.55 µM) | MIC values [1]: 100 µg/mL (≈ 198 µM); MIC values [3]: 25 µg/mL (≈ 49.6 µM); MIC values [5]: > 100 µg/mL; MIC values [7]: 0.2 µg/mL (≈ 0.396 µM); MIC values [12]: 12.5 µg/mL (≈ 24.8 µM); MIC values [17]: 6.2 µg/mL (≈ 12.3 µM); MIC values [19]: 0.2 µg/mL (≈ 0.396 µM); MIC values [21]: 1.56 µg/mL (≈ 3.09 µM); MIC values [22]: 0.78 µg/mL (≈ 1.55 µM); MIC values (Escherichia coli JUHL): 0.39 µg/mL (≈ 0.773 µM); MIC values [25]: > 100 µg/mL; MIC values [26]: 12.5 µg/mL (≈ 24.8 µM)
NC1CCN(c2nc3c(-c4c(F)c(F)c(F)c(F)c4F)cc(C(=O)O)c(=O)n3cc2F)C1 (centres unmarked) [Example 172, 2-(3-Aminopyrrolidin-1-yl)-3-fluoro-9-(2,3,4,5,6-pentafluorophenyl)-6H-6-oxopyrido[1,2-a]pyrimidine-7-carboxylic acid hydrochloride salt] | > 100 | > 100 | 0.39 | 25 | > 100 | 6.2 | > 100 | > 100 | > 100 | > 100 | > 100 | > 100 | 50 | 100 | 50 | 50 | 100 | > 100 | 6.2 | > 100 | MIC values [1]: > 100 µg/mL; MIC values [3]: 50 µg/mL; MIC values [5]: > 100 µg/mL; MIC values [7]: 50 µg/mL; MIC values [12]: 6.2 µg/mL; MIC values [17]: > 100 µg/mL; MIC values [19]: 100 µg/mL; MIC values [21]: 3.1 µg/mL; MIC values [22]: > 100 µg/mL; MIC values (Escherichia coli JUHL): 6.2 µg/mL; MIC values [25]: > 100 µg/mL; MIC values [26]: 50 µg/mL
O=C(O)c1cc(-c2ccc(F)cc2F)c2nc(N3CCC(O)C3)c(F)cn2c1=O (centres unmarked) [Example 170, 9-(2,4-Difluorophenyl)-3-fluoro-2-(3-hydroxypyrrolidin-1-yl)-6H-6-oxopyrido[1,2-a]pyrimidine-7-carboxylic acid] | 0.78 (≈ 1.92 µM) | 6.2 (≈ 15.3 µM) | 0.001 (≈ 0.00247 µM) | 0.2 (≈ 0.493 µM) | 12.5 (≈ 30.8 µM) | 0.1 (≈ 0.247 µM) | 0.2 (≈ 0.493 µM) | 0.78 (≈ 1.92 µM) | 1.56 (≈ 3.85 µM) | 0.78 (≈ 1.92 µM) | 3.1 (≈ 7.65 µM) | 0.78 (≈ 1.92 µM) | 0.05 (≈ 0.123 µM) | 0.78 (≈ 1.92 µM) | 0.05 (≈ 0.123 µM) | 0.2 (≈ 0.493 µM) | 0.1 (≈ 0.247 µM) | > 100 | 0.05 (≈ 0.123 µM) | 1.56 (≈ 3.85 µM) | MIC values [1]: 100 µg/mL (≈ 247 µM); MIC values [3]: 0.78 µg/mL (≈ 1.92 µM); MIC values [5]: > 100 µg/mL; MIC values [7]: 0.1 µg/mL (≈ 0.247 µM); MIC values [12]: 0.39 µg/mL (≈ 0.962 µM); MIC values [17]: 6.2 µg/mL (≈ 15.3 µM); MIC values [19]: 0.1 µg/mL (≈ 0.247 µM); MIC values [21]: 0.05 µg/mL (≈ 0.123 µM); MIC values [22]: 0.39 µg/mL (≈ 0.962 µM); MIC values [25]: 6.2 µg/mL (≈ 15.3 µM); MIC values [26]: 0.78 µg/mL (≈ 1.92 µM)
C[C@H](N)C(=O)N[C@@H](C)C(=O)N[C@H]1C[C@H](C)N(c2nc3c(-c4ccc(F)cc4F)cc(C(=O)O)c(=O)n3cc2F)C1 [Example 173, 2-((2S, 4S)-4-(N-(S)-Alanyl-(S)-alanyl)amino-2-methylpyrrolidin-1-yl)-9-(2,4-difluorophenyl)-3-fluoro-6H-6-oxopyrido[1,2-a]pyrimidine-7-carboxylic acid hydrochloride] | 50 | > 100 | 0.1 | 25 | > 100 | 3.1 | 12.5 | 12.5 | 100 | 12.5 | > 100 | 12.5 | 1.56 | 100 | 1.56 | 6.2 | 6.2 | > 100 | 3.1 | 100 | MIC values [1]: > 100 µg/mL; MIC values [3]: 50 µg/mL; MIC values [5]: > 100 µg/mL; MIC values [7]: 6.2 µg/mL; MIC values [12]: 25 µg/mL; MIC values [17]: 25 µg/mL; MIC values [19]: 12.5 µg/mL; MIC values [21]: 3.1 µg/mL; MIC values [22]: 6.2 µg/mL; MIC values (Escherichia coli JUHL): 6.2 µg/mL; MIC values [25]: > 100 µg/mL; MIC values [26]: 50 µg/mL
NC1CCN(c2nc3c(C4CC4)cc(C(=O)O)c(=O)n3cc2F)C1 (centres unmarked) [Example 157, 2-(3-Aminopyrrolidin-1-yl)-9-cyclopropyl-3-fluoro-6H-6-oxo-pyrido[1,2-a]pyrimidine-7-carboxylic acid hydrochloride salt] | 1.56 | 3.1 | 0.01 | 0.2 | 3.1 | 0.02 | 0.39 | 1.56 | 0.39 | 1.56 | 0.39 | 1.56 | 0.2 | 0.2 | 0.2 | 0.39 | 0.39 | 50 | 0.05 | 1.56 | MIC values ([1]; hydrochloride salt): 25 µg/mL; MIC values ([3]; hydrochloride salt): 0.39 µg/mL; MIC values ([5]; hydrochloride salt): 25 µg/mL; MIC values ([7]; hydrochloride salt): 0.39 µg/mL; MIC values ([12]; hydrochloride salt): 0.02 µg/mL; MIC values ([17]; hydrochloride salt): 3.1 µg/mL; MIC values ([19]; hydrochloride salt): 0.39 µg/mL; MIC values ([21]; hydrochloride salt): 0.02 µg/mL; MIC values ([22]; hydrochloride salt): 0.39 µg/mL; MIC values (Escherichia coli JUHL): 0.02 µg/mL; MIC values ([25]; hydrochloride salt): 1.56 µg/mL; MIC values [26]: 0.2 µg/mL
